From patent US8168832B2, “2,4,6-trialkylphenyl substituted cyclopentane-1,3-dione” (Bayer Cropscience AG, priority 2006, dated 2012)

Columns and labels:
[1] = tested on: crop plants (cereal); assay: Container trials with cereal in the greenhouse, mefenpyr 1 day prior to herbicide application (Example B, use of safeners); format: in vivo; conditions: without safener
Description: Seeds of monocotyledonous and dicotyledonous weed and crop plants are placed into sandy loam in wood fiber pots or in plastic pots, covered with soil and cultivated in a greenhouse, during the vegetation period also outdoors outside of the greenhouse, under good growth conditions. 2 to 3 weeks after sowing, the test plants are treated at the one- to three-leaf stage. The test compounds, formulated as wettable powders (WP) or liquid (EC), are, in various dosages at a water application rate of 300 l/ha (converted), with wetting agent (0.2 to 0.3%) added, sprayed onto the plants and the surface of the soil. […]
If it is additionally to be tested as to whether safeners can improve the plant compatibility of test substances in the case of crop plants, the following options are used for applying the safener: • seeds of the crop plants are, before sowing, dressed with the safener substance (the amount of safener stated in percent, based on the weight of the seed) • before the application of the test substances, the crop plants are sprayed with the safener at a certain application rate per hectare (usually 1 day before the application of the test substances) • the safener is applied together with the test substance as a tank mix (the amount of safener is stated in g/ha or as a ratio, based on the herbicide). • By comparing the effect of test substances on crop plants without or with safener treatment, it is possible to assess the effect of the safener substance.
Container Trials with Cereal in the Greenhouse
Mefenpyr 1 Day Prior to Herbicide Application

[2] = tested on: monocotyledonous and dicotyledonous weed and crop plants; assay: Herbicidal post-emergence action (Example B), also comparison with known compounds; format: in vivo; design: key: % herbicidal effect: 0 = like control, 100 = plants died
Description: Seeds of monocotyledonous and dicotyledonous weed and crop plants are placed into sandy loam in wood fiber pots or in plastic pots, covered with soil and cultivated in a greenhouse, during the vegetation period also outdoors outside of the greenhouse, under good growth conditions. 2 to 3 weeks after sowing, the test plants are treated at the one- to three-leaf stage. The test compounds, formulated as wettable powders (WP) or liquid (EC), are, in various dosages at a water application rate of 300 l/ha (converted), with wetting agent (0.2 to 0.3%) added, sprayed onto the plants and the surface of the soil. 3 to 4 weeks after the treatment of the test plants, the effect of the preparations is rated visually in comparison to untreated controls (herbicidal effect in percent (%): 100% effect=the plants have died, 0% effect=like control plants).

[3] = 28 days after application, 25 g of a.i./ha
[4] = 28 days after application, 50 g of a.i./ha
[5] = 28 days after application, 100 g of a.i./ha
[6] = 10 days after application, 25 g of a.i./ha
[7] = 10 days after application, 50 g of a.i./ha
[8] = 10 days after application, 100 g of a.i./ha
[9] = 28 days after application, 12.5 g of a.i./ha
[10] = 10 days after application, 200 g of a.i./ha

Compound | Summer wheat observed (%) [1, 3] | Summer barley observed (%) [1, 4] | Summer wheat observed (%) [1, 4] | Summer barley observed (%) [1, 5] | Summer wheat observed (%) [1, 5] | Summer wheat observed (%) [1, 6] | Summer barley observed (%) [1, 7] | Summer wheat observed (%) [1, 7] | Summer barley observed (%) [1, 8] | Summer wheat observed (%) [1, 8] | Summer barley observed (%) [1, 3] | Summer wheat observed (%) [1, 9] | also measured
CCc1cc(C)cc(CC)c1C1=C(OC(=O)COC)[C@H]2CCCC[C@H]2C1=O (relative stereo) [I-b-25] | 10% | 40% | 50% | 95% | 70% | – | – | – | – | – | – | – | –
CCC(=O)OC1=C(c2c(CC)cc(C)cc2CC)C(=O)C2CCCCC12 (centres unmarked) [I-b-44] | – | – | – | – | – | 20% | 40% | 40% | 40% | 40% | – | – | Summer barley observed (%) [1, 6]: 20%
CCc1cc(C)cc(CC)c1C1=C(OC(=O)C(C)C)[C@H]2CCCC[C@H]2C1=O (relative stereo) [I-b-23] | – | – | – | – | – | 40% | 60% | 70% | 60% | 80% | – | – | Summer wheat observed (%) ([1]; 10 days after application, 12.5 g of a.i./ha): 30%; Summer barley observed (%) [1, 6]: 30%
CCc1cc(C)cc(CC)c1C1=C(OC(=O)OC)C2CCCCC2C1=O (centres unmarked) [I-c-10] | 40% | 50% | 80% | 90% | 85% | – | – | – | – | – | 25% | – | –
CCc1cc(C)cc(CC)c1C1=C(OC(=O)C(C)C)[C@H]2CCCC[C@@H]2C1=O (relative stereo) [I-b-28] | 70% | 75% | 80% | – | – | – | – | – | – | – | 30% | 10% | Summer barley observed (%) [1, 9]: 20%
CCc1cc(C)cc(CC)c1C1=C(OC(=O)C(C)(C)C)[C@H]2CCCC[C@H]2C1=O (relative stereo) [I-b-24] | – | – | – | – | – | 30% | 20% | 60% | 50% | 65% | – | – | Summer barley observed (%) [1, 10]: 60%; Summer wheat observed (%) [1, 10]: 70%; ALOMY ([2]; 100 g/ha): 80; AVEFA ([2]; 100 g/ha): 90; LOLMU ([2]; 100 g/ha): 95; ALOMY ([2]; 200 g/ha): 90; AVEFA ([2]; 200 g/ha): 95; LOLMU ([2]; 200 g/ha): 98
CCc1cc(C)cc(CC)c1C1=C(OC(=O)COC)[C@H]2CCCC[C@@H]2C1=O (relative stereo) [I-b-27] | 20% | 20% | 40% | 50% | 70% | – | – | – | – | – | – | 10% | –
CCOC(=O)OC1=C(c2c(C)cc(C)cc2CC)C(=O)C2CCCCC12 (centres unmarked) [I-c-4] | 20% | 30% | 90% | 80% | 95% | – | – | – | – | – | 10% | 10% | Summer barley observed (%) [1, 9]: 5%
CCc1cc(C)cc(C)c1C1=C(OC(=O)COC)C2CCCCC2C1=O (centres unmarked) [I-b-15] | 30% | 30% | 50% | 90% | 85% | – | – | – | – | – | 10% | 10% | –
CCc1cc(C)cc(C)c1C1=C(OC(=O)COC)C2(CCCC2)CC1=O [I-b-11] | – | – | – | – | – | – | – | 30% | – | 50% | – | – | –
CCc1cc(C)cc(C)c1C1C(=O)[C@H]2CCCC[C@@H]2C1=O [I-a-1] | 40% | 70% | 50% | – | 50% | – | – | – | – | – | 50% | 10% | Summer barley observed (%) [1, 9]: 5%
CCc1cc(C)cc(CC)c1C1=C(O)C2CCCCC2C1=O (centres unmarked) [I-a-9] | 5% | 50% | 60% | – | 60% | – | – | – | – | – | 20% | – | ALOMY ([2]; 100 g/ha): 98; AVEFA ([2]; 100 g/ha): 100; LOLMU ([2]; 100 g/ha): 99; ALOMY ([2]; 200 g/ha): 98; AVEFA ([2]; 200 g/ha): 100; LOLMU ([2]; 200 g/ha): 99
CCOC(=O)OC1=C(c2c(CC)cc(C)cc2CC)C(=O)C2CCCCC12 (centres unmarked) [I-c-9] | 30% | 40% | 60% | 90% | 70% | – | – | – | – | – | 20% | 10% | Summer barley observed (%) [1, 9]: 10%
CCc1cc(CC)c(C2=C(OC(=O)COC)C3CCCCC3C2=O)c(CC)c1 (centres unmarked) [I-b-42] | – | – | – | – | – | 40% | 40% | 50% | 50% | 50% | – | – | Summer barley observed (%) [1, 6]: 20%
CCc1cc(C)cc(C)c1C1=C(OC(=O)COC)C2CCCCC2C1=O (centres unmarked) [I-b-13] | 70% | 90% | 85% | – | – | – | – | – | – | – | 20% | 20% | Summer barley observed (%) [1, 9]: 10%
CCc1cc(C)cc(CC)c1C1=C(OC(=O)COC)C2(CCCCC2)CC1=O [I-b-33] | – | – | – | – | – | 15% | – | 30% | – | 65% | – | – | –
CCc1cc(C)cc(C)c1C1=C(OC(=O)C(C)C)C2CCCCC2C1=O (centres unmarked) [I-b-16] | – | – | – | – | – | 20% | 40% | 50% | 60% | 60% | – | – | Summer barley observed (%) [1, 6]: 20%
CCC(=O)OC1=C(c2c(C)cc(C)cc2CC)C(=O)C2CCCCC12 (centres unmarked) [I-b-21] | 60% | 50% | 70% | 95% | – | – | – | – | – | – | 30% | 20% | Summer barley observed (%) [1, 9]: 5%
CCc1cc(C)cc(CC)c1C1=C(OC(=O)C(C)(C)C)[C@H]2CCCC[C@@H]2C1=O (relative stereo) [I-b-26] | – | 20% | 15% | 80% | 70% | – | – | – | – | – | – | – | ALOMY ([2]; 100 g/ha): 95; AVEFA ([2]; 100 g/ha): 98; LOLMU ([2]; 100 g/ha): 70; ALOMY ([2]; 200 g/ha): 97; AVEFA ([2]; 200 g/ha): 98; LOLMU ([2]; 200 g/ha): 100
CCc1cc(C)cc(CC)c1C1=C(OC(=O)OC)C2CCCCC2C1=O (centres unmarked) [I-c-14] | 80% | 93% | 95% | – | – | – | – | – | – | – | 30% | 20% | –
CCOC(=O)OC1=C(c2c(CC)cc(C)cc2CC)C(=O)C2CCCCC12 (centres unmarked) [I-c-8] | – | – | – | – | – | 50% | 20% | 70% | 30% | 80% | – | – | Summer barley observed (%) [1, 6]: 15%
CCc1cc(CC)c(C2=C(O)C3CCCCC3C2=O)c(CC)c1 (centres unmarked) [I-a-15] | – | – | – | – | – | – | 20% | 20% | 30% | 30% | – | – | –
CCc1cc(C)cc(CC)c1C1=C(O)C2CC3OC(C)(C)OC3CC2C1=O (mixture of isomers) [I-a-13] | – | – | – | – | – | 50% | 50% | 80% | 60% | 80% | – | – | Summer barley observed (%) [1, 6]: 30%
CCc1cc(C)cc(C)c1C1=C(O)C2(CCCCC2)CC1=O [I-a-3] | 25% | – | 25% | – | – | – | 20% | – | – | – | – | – | Summer barley observed (%) [1, 6]: 15%
CCc1cc(C)cc(C)c1C1=C(O)C2CCCCCC2C1=O (centres unmarked) [I-a-18] | 60% | 50% | 70% | 90% | 80% | – | – | – | – | – | 20% | – | –
